Reference: patent US8580843B2, “Use of diindolylmethane (DIM) compounds and derivatives as neuroprotective agents” (Colorado State University Research Foundation, priority 2008, dated 2013)

What was measured:
[1] = system: 3-nitrotyrosine protein nitration in astrocytes; experiment: Immunofluorescence of 3-nitrotyrosine adducts (protein nitration) in primary astrocytes treated with MPTP and cytokines; assay type: cell-based, mouse
Protocol: Immunofluorescence. Primary astrocytes were grown to confluence on 20 mm serum-coated glass coverslips and treated with saline or MPTP (10 μM), TNF-α (10 pg/ml), and IFN-γ (1 ng/ml) with or without DIM-C-pPhtBu (10 μM), rosiglitazone (10 μM), the NOS2 inhibitor AMT (25 nM) or NOS 1 inhibitor 7-NI (10 μM), or a DMSO vehicle control 8 hours prior to analysis. Immunofluorescence to confirm culture purity was conducted on cells grown to confluence on the 20 mm glass coverslips. Blocking and antibody hybridization was conducted in 1% BSA (w/v) in PBS, and all washes were conducted in PBS. Images were acquired using a Zeiss 20× air PlanApochromat objective and 6-8 microscopic fields were examined per treatment group over no less than three independent experiments. Fluorescent secondary antibodies were used to detect GFAP (488 nmcx/519 nmcm) and Iba1 or nitrosylated protein (647 nmcx/668 nmcm), respectively, while mounting medium containing DAPI (360 nmcx/460 nmcm) was used to identify cell nuclei.
The effect of NOS2 induction by MPTP and inflammatory cytokines on global protein nitration following NO/peroxynitrite (ONOO—) formation in astrocytes was examined by immunofluorescence (FIG. 3). Immunofluorescence using antibodies against GFAP (FITC) and 3-nitrotyrosine adducts (Cy5) was employed to measure the extent of protein nitration within astrocytes treated with MPTP and cytokines, with or without inclusion of DIM-C-pPhtBu (10 μM), rosiglitazone (10 μM), the high-affinity NOS2 inhibitor AMT (25 nM), the NOSI inhibitor 7-NI (10 μM) or a DMSO vehicle control. […] Co-treatment of astroytes with DIM-C-pPhtBu prevented MPTP-induced increases in nitration, resulting in similar levels of 3-nitrotyrosine adducts as saline-treated control cells (FIG. 3C). Mean intracellular fluorescence for 3-nitrotyrosine was quantified and compared between each treatment group (FIG. 3D).

[2] = system: primary striatal neurons co-cultured with activated astrocytes; experiment: Astrocyte-neuron co-culture: apoptosis of primary striatal neurons (caspase activity, Annexin V binding); assay type: cell-based, mouse; conditions: astrocytes co-treated with 25 nM for 8 hours, six hours of co-culture; FIG. 6 C-D
Protocol: Astrocyte Neuron Co-Culture. Cells were isolated as described above and astrocytes grown to confluence on permeable cell culture inserts (BD Biosciences, San Jose, Calif.) prior to treatment. Astrocytes were then treated with MPTP (10 μM), TNF-α (10 pg/ml) and IFN-γ (1 ng/ml) in the presence or absence of DIM-C-pPhtBu (10 μM), Rosiglitazone (10 μM) AMT (25 nM), or DMSO vehicle control for 8 hours. Media was then removed, and the astrocytes washed three times with sterile PBS to prevent carryover of treatment medium to the neurons, and the inserts were placed directly in each well over cultured neurons. Astrocyte-containing inserts were removed following six hours of co-culture, and neuronal caspase activity and phosphatidylserine translocation were measured by widefield fluorescence microscopy using the general cell permeable fluorescent caspase substrate rhodamine 110, bis-(L-aspartic acid amide) and an Annexin V Alexa Fluor 680 conjugate, respectively. Images were acquired using a Zeiss 20× air PlanApochromat objective and at least 10 microscopic fields were examined per treatment group over three independent experiments.
The efficacy of DIM-C-pPhtBu in preventing astrocyte-dependent neuronal apoptosis was examined in FIG. 6. Astrocytes were grown to confluence in cell culture inserts that are permeable to small molecules but prevent direct cell-cell contact. Following treatment of astrocytes with MPTP and TNF-α/IFN-γ in the presence or absence of DIM-C-pPhtBu (10 μM), rosiglitazone (10 μM), the NOS2 inhibitor AMT (25 nM), or DMSO, astrocytes were washed with PBS and co-incubated directly above primary striatal neurons in neurobasal medium. Indices of neuronal apoptosis were then measured using live-cell fluorescence imaging of caspase activity (FIG. 6A) and Annexin V binding (FIG. 6B). […] The DMSO vehicle control had no suppressive effect.
Differing letters denote statistical significance (p<0.05).

CC1CCN=C(N)S1 (stereo not drawn) [AMT, 2-amino-5,6-dihydro-6-methyl-4H-1,3-thiazine]
MPTP-induced increase in 3-nitrotyrosine formation ([1]; 25 nM co-treatment, astrocytes, FIG. 3D): prevented
Protein nitration in primary astrocytes induced by MPTP and TNF-α/IFN-γ ([1]; FIG. 7(D), concentration not given): prevents protein nitration
Apoptosis in co-cultured striatal neurons (caspase activity and Annexin V-binding) [2]: prevented
